# Where two headings read alike, the source gives them in different places.
# Key:
# PC-3 cells [1] = conditions: for apoptosis induction: 10 μmol/L, 24 h
# Experimental: (§1) a) Hoechst Staining. Cells were plated in 6-well culture dishes at 5×10^4 cells per/well and at subconfluency were treated with increasing concentrations of DZ-1-23, -38, -40, -42, and -50 (0-25 μM). After 24 and 48 hrs of treatment, cells were fixed with 4% (w/v) paraformaldehyde (Sigma) and stained with 10 μg/mL Hoechst 33342 (B2261; Sigma) in the presence of 0.1% Triton X-100 (Sigma) as previously described. Cells were visualized using a Zeiss Axiovert S100 fluorescent microscope (Thornwood, N.Y.) with a UV filter (365 nm) and cells with condensed chromatin were designated apoptotic (100× magnification). The apoptotic index was determined by counting three random fields in duplicate wells per group. Each experiment was performed twice. b) MTT assay: Subconfluent cultures of cells were exposed to increasing concentrations of DZ-1-23, -38, -40, -42, and -50 (0-25 μM). After treatment the medium was replaced with 250 μl of MTT (Sigma) (1 mg/ml) and incubated at 37° C. to form blue crystals. After 2 hrs the MTT was removed and replaced with DMSO (250 μl) and incubated overnight at 37° C. The DMSO-crystal solution's absorbance was read at 540 nm in a microplate reader (Bio-Tek Instruments, Winooski, VM). Numerical data represent the average of three independent experiments performed in triplicate. Cell Migration Assay. (Wounding assay) Confluent monolayers of PC-3, DU-145, HUVEC, or HMVEC-L cells were wounded with a toothpick. After wounding, medium was changed and DZ-3 or DZ-50 (5 μM). After incubation for 12 or 24 hrs, wounding areas were examined under light microscopy (Axiovert 10, Zeiss). Cells that had migrated to the wounded areas were counted under a microscope for quantification of cell migration. Migration was calculated as the average number of cells observed in five random high power (400×) wounded fields/per well in duplicate wells. Tube Formation Assay: In vitro Angiogenesis Evaluation: In vitro formation of tubular structures was studied on extracellular matrix using an angiogenesis kit as described by the manufacturer (Chemicon International, Inc., Temecula, Calif.). HUVEC or HMVEC-L (10×10^4 cells/well) of 96-well-plates were seeded onto ECMatrigel-coated wells in the presence or absence of DZ-3 or DZ-50 and VEGF. Cells were treated with cytokines as single agents or each in combination (e.g. DZ-50 and VEGF).
# HUVEC = assay: Tube formation assay (in vitro angiogenesis); assay type: cell-based, human; conditions: for vascular endothelial cell tube formation: 10 μmol/L, Matrigel, 24 hrs
# [2] = tested on: endothelial and epithelial cell lines; assay: Cell viability / cell death evaluation (MTT assay); assay type: cell-based, human
# PC-3 cells [3] = conditions: 6, 9, and 12 h exposure, 5 and 10 μmol/L
# Experimental: (§2) Prostate cancer cells PC-3 and DU-145 cells were treated for 3, 6, 9, 12, or 15 hrs with DZ-50 (5 μM) and harvested. 5×10^4 cells were added to each well of a 6-well culture dish coated with either collagen or fibronectin and incubated for 30 min at 37° C. Following incubation cells were fixed and the number of cells/well recorded. Numerical data represent the average of three independent experiments in triplicate.
# DU-145 cells [4] = tested on: DU-145 cells
# Experimental: as §2
# [5] = tested on: HUVEC, HMVEC-L vascular endothelial cells; conditions: non-cytotoxic doses 5 and 10 μM
# Experimental: as §1
# DU-145 cells [6] = conditions: non-cytotoxic doses 5 and 10 μM
# Experimental: as §1
# [7] = tested on: PC-3 cells on HMVEC-L monolayer; conditions: 6 hrs of exposure, non-cytotoxic doses
# Experimental: Sterile (12 mm diameter) glass coverslips were coated with Matrigel (Becton Dickson, Franklin Lakes, N.J.) at a dilution of 1:8 and air dried at room temperature (1 hr). Coverslips received approximately 6.25×10^4 HMVEC-L to form a complete monolayer. The cells were allowed to spread on the Matrigel for 24 hrs prior to the experiment. PC-3 cells were resuspended in EGM-2MV (Cambrex) and added to the HMVEC-L monolayer at a concentration of 8×10^3 cells/coverslip. Co-cultures were incubated at 37° C. at 5% CO2 for 3, 6, 9, 12, and 24 hrs. Prior to the addition of prostate epithelial cells, cells were incubated with the lipophilic tracer 1,1′-dioctadecyl-3,3,3′,3′-tetramethylindocarbocyanine perchlorate (DiI) (Invitrogen, Carlsbad, Calif.) for 20 min at 10 μg/ml to stain cell membranes. To label F-actin, PC-3 cells, or co-cultures of PC-3 cells HMVEC-L were fixed for 10 min at room temperature in 2% paraformaldehyde in PBS, and were permeabilized for 5 min with a buffer containing 15 mM Tris, 120 mM NaCl, 2 mM EDTA, 2 mM EGTA, and 0.5% Triton X-100 (pH 7.4). […] Coverslips were mounted with Vectashield (Vector Laboratories, Burlington, Canada) on glass slides and analyzed with confocal microscopy.
# integrin β1 = conditions: 10 μmol/L
# Experimental: (§3) FACS—Flow Cytometric Analysis: PC-3 cells were treated with DZ-50 (10 μM) and harvested with 0.5 mM EDTA solution. Prostate cancer epithelial cells were then incubated with hanks balanced salt solution (HBSS) supplemented with 2% BSA and 0.01% sodium azide for 30 min at 4° C. Cells were subsequently fixed in 4% (w/v) formaldehyde, washed, and incubated with the designated integrin antibody followed by FITC-conjugated goat anti-mouse secondary. Analysis was performed on a Partec FlowMax (Partec, Munster, Germany).
# [8] = tested on: integrins α2, α3, αV, and β3; conditions: PC-3 cells, data not shown
# Experimental: as §3
# [9] = tested on: PC-3 cells injected in the tail vein; conditions: 200 mg/kg p.o. from 10 d postinoculation, 21 days of treatment, vs untreated control mice
# Experimental: Spontaneous Metastasis Assay: Human prostate cells (PC-3) were injected (2×10^6 cells/80 μl of PBS) in the tail vein of male nude mice, 4-6 wks of age; mice were maintained in a pathogen-free environment. At 10 days post-inoculation, 200 mg/kg of DZ-50 was given daily (via oral gavage as described above). After 2 wks of treatment, DZ-50 treated and vehicle control mice were sacrificed and lungs, spleen, kidneys, and prostate organs were excised and subjected to examination for metastatic tumor lesions. Apoptosis Evaluation Apoptotic cells were detected using the ApopTago Peroxidase In Situ Apoptosis Kit (Chemicon, Temecula, Calif.). Briefly, paraffin-embedded sections were treated with Proteinase K (Dako, Carpinteria, Calif.) and were subsequently incubated with terminal deoxynucleotidyl transferase enzyme. Terminal deoxynucleotidyl transferase-mediated deoxyuridine triphosphate nick end labeling (TUNEL)-positive cells were counted in five different fields (400×) and the apoptotic index was determined based on the number of apoptotic cells over the total number of cells. […] CD31-positive endothelial cells were counted in five different fields (400×). Cell Proliferation Cell proliferation index was evaluated on the basis of Ki67 nuclear antigen immunoreactivity. […] Ki67+ cells were counted from five different fields (400×).
# [10] = data not shown
# [11] = tested on: DU-145 human prostate cancer xenografts; conditions: for CD31+ (vascularity) / Ki67 (proliferation index), % / TUNEL (apoptotic index): DU-145 xenograft
# Experimental: (§4) Tumorigenicity Studies. Human prostate cells (PC-3 and DU-145) suspended in PBS, were inoculated subcutaneously (s.c.) (2.5×10^6 cells/site) in the flank of male nude mice, 4-6 weeks of age. Tumors were measured every 48 hrs with a digital caliber, and tumor volumes were calculated using the formula length×(width)^2/2. When tumors reached ≈50 mm^3 mice were stratified into treatment groups of 6 mice/treatment. DZ-50 was administered at doses of 50, 100, and 200 mg/kg in 0.5% methylcellulose (w/v)+0.1% Tween-80 (v/v) in water, by oral gavage using a 22-gauge, 1.5-inch gavage needle. Animals were sacrificed after 2 wks of treatment unless otherwise indicated. In a separate experiment human prostate cells (PC-3) were inoculated as described above and dosing began (200 mg/kg) concurrently for 2 wks. Upon termination of the experiment, tumors were surgically excised and tissue specimens were fixed in a 10% (v/v) formalin solution (Sigma) and subsequently embedded in Paraplast X-tra paraffin (VWR). Blocks were sectioned (6 μm) on a Finesse Microtome (ThermoShandon, UK).
# (§5) Spontaneous Metastasis Assay: Human prostate cells (PC-3) were injected (2×10^6 cells/80 μl of PBS) in the tail vein of male nude mice, 4-6 wks of age; mice were maintained in a pathogen-free environment. At 10 days post-inoculation, 200 mg/kg of DZ-50 was given daily (via oral gavage as described above). After 2 wks of treatment, DZ-50 treated and vehicle control mice were sacrificed and lungs, spleen, kidneys, and prostate organs were excised and subjected to examination for metastatic tumor lesions. Apoptosis Evaluation Apoptotic cells were detected using the ApopTago Peroxidase In Situ Apoptosis Kit (Chemicon, Temecula, Calif.). Briefly, paraffin-embedded sections were treated with Proteinase K (Dako, Carpinteria, Calif.) and were subsequently incubated with terminal deoxynucleotidyl transferase enzyme. Terminal deoxynucleotidyl transferase-mediated deoxyuridine triphosphate nick end labeling (TUNEL)-positive cells were counted in five different fields (400×) and the apoptotic index was determined based on the number of apoptotic cells over the total number of cells. Vascularity Evaluation: CD31 staining was performed for endothelial cells using enzymatic digestion with Proteinase K (Dako). The primary antibody used was the mouse anti-human CD31 specific for endothelial cells from Dako (overnight incubation at 4° C.). CD31-positive endothelial cells were counted in five different fields (400×). Cell Proliferation Cell proliferation index was evaluated on the basis of Ki67 nuclear antigen immunoreactivity. Following antigen retrieval slides were incubated with an antibody directed against the Ki67 nuclear antigen (AMAC, Westbrook, Mass.). Ki67+ cells were counted from five different fields (400×).
# [12] = tested on: PC-3 human prostate cancer xenografts; conditions: for CD31+ (vascularity) / Ki67 (proliferation index), % / TUNEL (apoptotic index): PC-3 xenograft
# Experimental: as §4, §5
# [13] = tested on: CAM blood vessel development; conditions: 48 hrs, with VEGF or bFGF
# Experimental: Fertilized chicken eggs were incubated at 37° C. At E8 a window was created to allow visualization of the egg shell membrane. 6 mm blank paper discs (BD) were placed on the egg shell membrane along with VEGF (100 ng) or bFGF (100 ng) and DZ-50. The windows were sealed with porous adhesive and allowed to incubate 48 hrs. At E10 the adhesive was removed along with the egg shell membrane to expose the CAM and 4% paraformaldehyde was added. Following excision the number of vessels per CAM was quantified by counting under a dissecting microscope.
smiles,measurement,setting,value
COc1cc2nc(N3CCN(S(=O)(=O)c4ccc(-c5ccccc5)cc4)CC3)nc(N)c2cc1OC [DZ-3],apoptosis induction,PC-3 cells [1],trigger apoptotic cell death
"COc1cc2nc(N3CCN(S(=O)(=O)c4c(C(C)C)cc(C(C)C)cc4C(C)C)CC3)nc(N)c2cc1OC [DZ-10, 2-[4-(2,4,6-triisopropylbenzenesulfonyl)-piperazin-1-yl]-6,7-dimethoxyquinazolin-4-yl-amine]",vascular endothelial cell tube formation,HUVEC,does not change the ability of HUVEC cells to form multibranched tubular networks
same,effect on cell viability,[2]; negative control compound of the tube formation assay,no effect on cell viability
CC(C)Oc1cc2nc(N3CCN(S(=O)(=O)c4ccc(-c5ccccc5)cc4)CC3)nc(N)c2cc1OC(C)C [DZ-50],attachment of PC-3 cells to fibronectin or collagen,PC-3 cells [3],"reduced the ability of PC-3 cells to attach to either fibronectin or collagen, but this effect was not statistically significant"
same,attachment of DU-145 cells to fibronectin or collagen,DU-145 cells [4],"neither fibronectin nor collagen, was significantly inhibited"
same,endothelial cell migration,[5],significant inhibition
same,apoptosis induction,PC-3 cells [1],not effective at inducing apoptosis
same,prostate cancer epithelial cell migration (PC-3),PC-3 cells [1]; non-cytotoxic doses 5 and 10 μM,significant inhibition
same,prostate cancer epithelial cell migration (DU-145),DU-145 cells [6],significant inhibition
same,tube formation in the presence of VEGF,HUVEC; 10 μmol/L with VEGF,VEGF cannot reverse the antiangiogenic effect
same,vascular endothelial cell tube formation,HUVEC,significantly inhibited
same,attachment of tumor epithelial cells to an endothelial monolayer,[7],significantly inhibited
same,integrin β1 expression intensity,"integrin β1; DU-145 cells, 12 h",significantly smaller shift
same,integrin β1 surface expression,"integrin β1; PC-3 cells, 12-24 hrs",undetectable
same,"surface expression of integrins α2, α3, αV, and β3",[8],did not effect the surface expression
same,number of metastatic foci to the lungs,[9],significant reduction
same,"gross and histological examination of lung, liver, spleen, and prostate",[10]; compared to control animals,no apparent changes
same,animal's behavioral pattern and weight,[10],no change
same,CD31+ (vascularity),[11]; 100 mg/kg,15.1 ± 0.7
same,"Ki67 (proliferation index), %",[11]; 100 mg/kg,53.9%
same,TUNEL (apoptotic index),[11]; 100 mg/kg,3.5 ± 1.0
same,CD31+ (vascularity),[11]; 200 mg/kg,10.1 ± 0.4
same,"Ki67 (proliferation index), %",[11]; 200 mg/kg,49.7%
same,TUNEL (apoptotic index),[11]; 200 mg/kg,3.4 ± 1.2
same,tumor volume,"[11]; DU-145 xenografts, 200 mg/kg p.o., 14 d after palpable tumor formation",significant reduction in tumor volume
same,prostate tumor development (growth initiation),"[12]; PC-3 inoculation with simultaneous treatment, 200 mg/kg p.o., 2 wks",dramatically suppressed
same,CD31+ (vascularity),[12]; 100 mg/kg,13.5 ± 1.9
same,"Ki67 (proliferation index), %",[12]; 100 mg/kg,42.6%
same,TUNEL (apoptotic index),[12]; 100 mg/kg,2.0 ± 0.8
same,CD31+ (vascularity),[12]; 200 mg/kg,6.5 ± 0.6
same,"Ki67 (proliferation index), %",[12]; 200 mg/kg,45.0%
same,TUNEL (apoptotic index),[12]; 200 mg/kg,1.4 ± 0.4
same,tumor volume,"[12]; PC-3 xenografts, 200 mg/kg p.o., 14 d after palpable tumor formation",significant reduction in tumor volume
same,cell viability/cell death,"[2]; PC-3 and HMVEC-L cells, 10M, first 24 hrs of treatment",no effect on cell viability/cell death
same,cell viability,"[2]; endothelial and epithelial cell lines, 24 and 48 hrs, 5-25 μmol/L",reduced cell viability
same,angiogenesis/vascularity (number of blood vessels per CAM),[13],significant suppression of angiogenesis/vascularity

# Source: patent US20090170865A1, “Treatment of Prostate Cancer with Angiogenesis-Targeting Quinazoline-Based Anti-Cancer Compounds” (University of Kentucky Research Foundation, priority 2007, published 2009)
